Tests used:
MOLM-13 cells [1] = test: MOLM-13 Cell Proliferation Assay (indicator of DHODH inhibition); format: cell-based; settings: Homo sapiens, 72 Hours of culture, CellTiter-Glo, no uridine
How it was run: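 Low-passage MOLM-13 cells (10^4/well) in RPMI 1640 + 10% FBS exposed to compound (0.5% DMSO final) for 72 h at 37 °C, 5% CO2. Viability read by CellTiter-Glo luminescence; growth reflects de novo pyrimidine synthesis dependent on DHODH.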

MOLM-13 cells [2] = test: MOLM-13 Uridine Rescue Assay; format: cell-based; settings: Homo sapiens; MOLM-13 cell proliferation with 100 μM Uridine added, 72 Hours of culture
Experimental: The following assay was conducted to measure proliferation of MOLM-13 cells in the presence of each compound studied. This assay was included as an indicator of DHODH inhibition, as growth of MOLM-13 cells is known to depend on synthesis of pyrimidines using the de novo pathway, which can be blocked by inhibition of DHODH. • 1. MOLM-13 cells were cultured in RPMI 1640 medium+10% Fetal Bovine Serum (FBS). Only low passage cells (<20) were used for the compound tests • 2. On day 1, Log-phase growing Molm-13 Cells were counted and diluted to 10^5 cells/mL in RPMI 1640 medium+10% FBS • 3. 100 μL of diluted MOLM-13 cells in 96 well white plates were seeded, for a final density of 10^4 cells/well. • 4. 0.5 μL of pre-diluted 200× compounds or DMSO control was added to each well. The final DMSO concentration was 0.5%. • 5. After 72 Hours of culture at 37° C., 5% CO2, the plates were taken out and cooled to RT, then 50 μL CellTiter-Glo® (Promega) was added, and the composition was mixed at RT for 10 minutes. • 6. The plates were then read by ViewLux (Speed-fast, Gain-High, Bining-1X, 5 seconds).
Several compounds were also tested in a Uridine rescue assay. In the Uridine rescue assay, using the procedure in Example 1 above, an additional plate of MOLM-13 cell cultures was prepared, to which 100 μM of Uridine was added in step 3 of the process.

## Cc1ncnc(N2CCc3c([nH]c4ccc(Cl)cc34)C2c2cnc(N3CCOCC3)nc2)n1 (stereo not drawn) [Compound 294, 6-chloro-2-(4-methyl-1,3,5-triazin-2-yl)-1-[2-(morpholin-4-yl)pyrimidin-5-yl]-2,3,4,9-tetrahydro-1H-pyrido[3,4-b]indole]
MOLM-13 cells [1]
  IC50: 20.8 nM
MOLM-13 cells [2]
  IC50: 12.4 µM

## Cc1cc(C(F)(F)F)nc(N2CCc3c([nH]c4ccc(Cl)cc34)C2c2ccc(N3CCOCC3)nc2)n1 (stereo not drawn) [Compound 372, 6-chloro-2-[4-methyl-6-(trifluoromethyl)pyrimidin-2-yl]-1-[6-(morpholin-4-yl)pyridin-3-yl]-2,3,4,9-tetrahydro-1H-pyrido[3,4-b]indole]
MOLM-13 cells [1]
  IC50: 1.6 nM
MOLM-13 cells [2]
  IC50: 16.4 µM

## FC(F)(F)c1nc(N2CCc3c([nH]c4ccc(Cl)cc34)C2c2cnc(N3CCOCC3)nc2)nc(C(F)(F)F)n1 (stereo not drawn) [Compound 388, 2-[4,6-bis(trifluoromethyl)-1,3,5-triazin-2-yl]-6-chloro-1-[2-(morpholin-4-yl)pyrimidin-5-yl]-2,3,4,9-tetrahydro-1H-pyrido[3,4-b]indole]
MOLM-13 cells [1]
  IC50: 0.3 nM
MOLM-13 cells [2]
  IC50: 6.64 µM

## Cc1cc(C)nc(N2CCc3c([nH]c4ccc(Cl)cc34)C2c2ccc(N3CCOCC3)nc2)n1 (stereo not drawn) [Compound 350, 6-chloro-2-(4,6-dimethylpyrimidin-2-yl)-1-[6-(morpholin-4-yl)pyridin-3-yl]-2,3,4,9-tetrahydro-1H-pyrido[3,4-b]indole]
MOLM-13 cells [1]
  IC50: 4.8 nM
MOLM-13 cells [2]
  IC50: 14.9 µM

## Cc1ccc(C2c3[nH]c4ccc(Cl)c(N)c4c3CCN2c2nccc(C(F)(F)F)n2)c(F)c1F (stereo not drawn) [Compound 273, 6-chloro-1-(2,3-difluoro-4-methylphenyl)-2-[4-(trifluoromethyl)pyrimidin-2-yl]-2,3,4,9-tetrahydro-1H-pyrido[3,4-b]indol-5-amine]
MOLM-13 cells [1]
  IC50: 7.5 nM
MOLM-13 cells [2]
  IC50: 29.7 µM

## FC(F)(F)c1ncnc(N2CCc3c([nH]c4ccc(Cl)cc34)[C@@H]2c2ccc(N3CCOCC3)nc2)n1 [Compound 462, (1S)-6-chloro-1-[6-(morpholin-4-yl)pyridin-3-yl]-2-[4-(trifluoromethyl)-1,3,5-triazin-2-yl]-2,3,4,9-tetrahydro-1H-pyrido[3,4-b]indole]
MOLM-13 cells [1]
  IC50: 1.3 nM
MOLM-13 cells [2]
  IC50: 13.6 µM

## CN1CCN(c2ncc(C3c4[nH]c5ccc(Cl)cc5c4CCN3c3nc(C(F)(F)F)cc(C(F)(F)F)n3)cn2)CC1 (stereo not drawn) [Compound 381, 2-[4,6-bis(trifluoromethyl)pyrimidin-2-yl]-6-chloro-1-[2-(4-methylpiperazin-1-yl)pyrimidin-5-yl]-2,3,4,9-tetrahydro-1H-pyrido[3,4-b]indole]
MOLM-13 cells [1]
  IC50: 0.7 nM
MOLM-13 cells [2]
  IC50: 4.29 µM

## Cc1ccc(C2c3[nH]c4ccc(Cl)cc4c3CCN2c2nccc(C#N)n2)c(F)c1F (stereo not drawn) [Compound 363, 2-[6-chloro-1-(2,3-difluoro-4-methylphenyl)-1,3,4,9-tetrahydro-2H-pyrido[3,4-b]indol-2-yl]pyrimidine-4-carbonitrile]
MOLM-13 cells [1]
  IC50: 3.2 nM
MOLM-13 cells [2]
  IC50: 10.3 µM

## Cc1ccc([C@H]2c3[nH]c4ccc(Cl)cc4c3CCN2c2nccc(C(F)(F)F)n2)c(F)c1F [Compound 233, (1S)-6-chloro-1-(2,3-difluoro-4-methylphenyl)-2-[4-(trifluoromethyl)pyrimidin-2-yl]-2,3,4,9-tetrahydro-1H-pyrido[3,4-b]indole]
MOLM-13 cells [1]
  IC50: 0.4 nM
MOLM-13 cells [2]
  IC50: 12.4 µM

## Cc1ccc(C2c3[nH]c4c(N)cc(Cl)cc4c3CCN2c2nccc(C(F)(F)F)n2)cc1 (stereo not drawn) [Compound 231, 6-chloro-1-(4-methylphenyl)-2-[4-(trifluoromethyl)pyrimidin-2-yl]-2,3,4,9-tetrahydro-1H-pyrido[3,4-b]indol-8-amine]
MOLM-13 cells [1]
  IC50: 1.1 nM
MOLM-13 cells [2]
  IC50: 19.3 µM

## Cc1ccc(C2c3[nH]c4cc(N)c(Cl)cc4c3CCN2c2nccc(C(F)(F)F)n2)c(F)c1F (stereo not drawn) [Compound 282, 6-chloro-1-(2,3-difluoro-4-methylphenyl)-2-[4-(trifluoromethyl)pyrimidin-2-yl]-2,3,4,9-tetrahydro-1H-pyrido[3,4-b]indol-7-amine]
MOLM-13 cells [1]
  IC50: 23.2 nM
MOLM-13 cells [2]
  IC50: 11.5 µM

## FC(F)(F)c1ncnc(N2CCc3c([nH]c4ccc(Cl)cc34)[C@@H]2c2cnc(N3CCOCC3)nc2)n1 [Compound 460, (1S)-6-chloro-1-[2-(morpholin-4-yl)pyrimidin-5-yl]-2-[4-(trifluoromethyl)-1,3,5-triazin-2-yl]-2,3,4,9-tetrahydro-1H-pyrido[3,4-b]indole]
MOLM-13 cells [1]
  IC50: 1.3 nM
MOLM-13 cells [2]
  IC50: 1.16 µM

## Cc1cc(C#N)nc(N2CCc3c([nH]c4ccc(Cl)cc34)C2c2cnc(N3CCOCC3)nc2)n1 (stereo not drawn) [Compound 362, 2-{6-chloro-1-[2-(morpholin-4-yl)pyrimidin-5-yl]-1,3,4,9-tetrahydro-2H-pyrido[3,4-b]indol-2-yl}-6-methylpyrimidine-4-carbonitrile]
MOLM-13 cells [1]
  IC50: 4.3 nM
MOLM-13 cells [2]
  IC50: 6.81 µM

## Cc1nc(C)nc(N2CCc3c([nH]c4c(O)cc(Cl)cc34)C2c2ccc(C)c(F)c2F)n1 (stereo not drawn) [Compound 348, 6-chloro-1-(2,3-difluoro-4-methylphenyl)-2-(4,6-dimethyl-1,3,5-triazin-2-yl)-2,3,4,9-tetrahydro-1H-pyrido[3,4-b]indol-8-ol]
MOLM-13 cells [1]
  IC50: 1.2 nM
MOLM-13 cells [2]
  IC50: 2 µM

## FC(F)(F)c1ccnc(N2CCc3c([nH]c4ccc(-n5nccn5)cc34)C2c2ccc(N3CCOCC3)nc2)n1 (stereo not drawn) [Compound 316, 1-[6-(morpholin-4-yl)pyridin-3-yl]-6-(2H-1,2,3-triazol-2-yl)-2-[4-(trifluoromethyl)pyrimidin-2-yl]-2,3,4,9-tetrahydro-1H-pyrido[3,4-b]indole]
MOLM-13 cells [1]
  IC50: 3.8 nM
MOLM-13 cells [2]
  IC50: 10.7 µM

## N#Cc1ccnc(N2CCc3c([nH]c4ccc(Cl)cc34)C2c2ccc(N3CCOCC3)nc2)n1 (stereo not drawn) [Compound 356, 2-{6-chloro-1-[6-(morpholin-4-yl)pyridin-3-yl]-1,3,4,9-tetrahydro-2H-pyrido[3,4-b]indol-2-yl}pyrimidine-4-carbonitrile]
MOLM-13 cells [1]
  IC50: 4.6 nM
MOLM-13 cells [2]
  IC50: 6.96 µM

## FC(F)(F)c1ccnc(N2CCc3c([nH]c4ccc(-n5nccn5)cc34)C2c2cnc(N3CCOCC3)nc2)n1 (stereo not drawn) [Compound 288, 1-[2-(morpholin-4-yl)pyrimidin-5-yl]-6-(2H-1,2,3-triazol-2-yl)-2-[4-(trifluoromethyl)pyrimidin-2-yl]-2,3,4,9-tetrahydro-1H-pyrido[3,4-b]indole]
MOLM-13 cells [1]
  IC50: 4.6 nM
MOLM-13 cells [2]
  IC50: 11.4 µM

## Nc1cc(Cl)cc2c3c([nH]c12)C(c1cnc(N2CCOCC2)nc1)N(c1nccc(C(F)(F)F)n1)CC3 (stereo not drawn) [Compound 310, 6-chloro-1-[2-(morpholin-4-yl)pyrimidin-5-yl]-2-[4-(trifluoromethyl)pyrimidin-2-yl]-2,3,4,9-tetrahydro-1H-pyrido[3,4-b]indol-8-amine]
MOLM-13 cells [1]
  IC50: 1.1 nM
MOLM-13 cells [2]
  IC50: 14.5 µM

## CN1CCN(c2ncc([C@H]3c4[nH]c5ccc(Cl)cc5c4CCN3c3nc(C(F)(F)F)cc(C(F)(F)F)n3)cn2)CC1 [Compound 419, (1S)-2-[4,6-bis(trifluoromethyl)pyrimidin-2-yl]-6-chloro-1-[2-(4-methylpiperazin-1-yl)pyrimidin-5-yl]-2,3,4,9-tetrahydro-1H-pyrido[3,4-b]indole]
MOLM-13 cells [1]
  IC50: 0.5 nM
MOLM-13 cells [2]
  IC50: 5.64 µM

## Cc1ccc(C2c3[nH]c4cc(F)c(Cl)cc4c3CCN2c2nccc(C(F)(F)F)n2)cc1 (stereo not drawn) [Compound 72, 6-chloro-7-fluoro-1-(4-methylphenyl)-2-[4-(trifluoromethyl)pyrimidin-2-yl]-2,3,4,9-tetrahydro-1H-pyrido[3,4-b]indole]
MOLM-13 cells [1]
  IC50: 3.5 nM
MOLM-13 cells [2]
  IC50: 18.8 µM

## FC(F)(F)c1nc(N2CCc3c([nH]c4ccc(Cl)cc34)[C@@H]2c2cnc(N3CCOCC3)nc2)nc(C(F)(F)F)n1 [Compound 406, (1S)-2-[4,6-bis(trifluoromethyl)-1,3,5-triazin-2-yl]-6-chloro-1-[2-(morpholin-4-yl)pyrimidin-5-yl]-2,3,4,9-tetrahydro-1H-pyrido[3,4-b]indole]
MOLM-13 cells [1]
  IC50: 0.3 nM
MOLM-13 cells [2]
  IC50: 8.35 µM

## FC(F)(F)c1ccnc(N2CCc3c([nH]c4ccc(Cl)cc34)[C@@H]2c2cnc(N3CCOCC3)nc2)n1 [Compound 408, (1S)-6-chloro-1-[2-(morpholin-4-yl)pyrimidin-5-yl]-2-[4-(trifluoromethyl)pyrimidin-2-yl]-2,3,4,9-tetrahydro-1H-pyrido[3,4-b]indole]
MOLM-13 cells [1]
  IC50: 1.2 nM
MOLM-13 cells [2]
  IC50: 11 µM

## Cc1nc(C)nc(N2CCc3c([nH]c4cc(N)c(Cl)cc34)C2c2cnc(N3CCOCC3)nc2)n1 (stereo not drawn) [Compound 320, 6-chloro-2-(4,6-dimethyl-1,3,5-triazin-2-yl)-1-[2-(morpholin-4-yl)pyrimidin-5-yl]-2,3,4,9-tetrahydro-1H-pyrido[3,4-b]indol-7-amine]
MOLM-13 cells [1]
  IC50: 11.7 nM
MOLM-13 cells [2]
  IC50: 9.81 µM

## FC(F)(F)c1cc(C(F)(F)F)nc(N2CCc3c([nH]c4ccc(Cl)cc34)[C@@H]2c2ccc(N3CCOCC3)nc2)n1 [Compound 409, (1S)-2-[4,6-bis(trifluoromethyl)pyrimidin-2-yl]-6-chloro-1-[6-(morpholin-4-yl)pyridin-3-yl]-2,3,4,9-tetrahydro-1H-pyrido[3,4-b]indole]
MOLM-13 cells [1]
  IC50: 0.2 nM
MOLM-13 cells [2]
  IC50: 12.6 µM
